Results as given in ChEMBL document CHEMBL1201862, “PubChem BioAssay data set” (2004).
The source made the active and inactive calls.

How the values were obtained:
[1] = molecular target: Mu-type opioid receptor (Homo sapiens, UniProt P35372); assay: (§1) Counterscreen for agonists of heterodimerization of the mu 1 (OPRM1) and delta 1 (OPRD1) opioid receptors: Luminescence-based cell-based high throughput dose response assay to identify agonists of OPRM1 homodimerization.; assay type: functional
Chain of Mu-type opioid receptor (P35372 whole entry): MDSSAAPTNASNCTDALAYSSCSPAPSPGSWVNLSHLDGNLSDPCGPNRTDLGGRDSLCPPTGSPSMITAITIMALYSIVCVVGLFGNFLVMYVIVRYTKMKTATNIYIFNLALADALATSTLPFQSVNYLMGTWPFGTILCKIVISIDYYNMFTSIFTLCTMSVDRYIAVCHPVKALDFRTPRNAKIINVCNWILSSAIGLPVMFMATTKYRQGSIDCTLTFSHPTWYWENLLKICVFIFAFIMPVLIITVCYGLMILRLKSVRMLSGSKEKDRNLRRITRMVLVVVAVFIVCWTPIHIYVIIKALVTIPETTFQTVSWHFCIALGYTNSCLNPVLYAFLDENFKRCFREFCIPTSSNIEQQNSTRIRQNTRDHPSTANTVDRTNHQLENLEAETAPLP

[2] = molecular target: 5-hydroxytryptamine receptor 5A (Homo sapiens, UniProt P47898); assay: Counterscreen for agonists of OPRM1-OPRD1 heterodimerization: luminescence-based cell-based high throughput dose response assay to identify agonists of 5-hydroxytryptamine (serotonin) 5A receptor (HTR5A). [Related pubchem assays (depositor defined):AID504326, AID504355, AID504692, AID504904, AID504905]; assay type: functional
Chain of 5-hydroxytryptamine receptor 5A (P47898 whole entry): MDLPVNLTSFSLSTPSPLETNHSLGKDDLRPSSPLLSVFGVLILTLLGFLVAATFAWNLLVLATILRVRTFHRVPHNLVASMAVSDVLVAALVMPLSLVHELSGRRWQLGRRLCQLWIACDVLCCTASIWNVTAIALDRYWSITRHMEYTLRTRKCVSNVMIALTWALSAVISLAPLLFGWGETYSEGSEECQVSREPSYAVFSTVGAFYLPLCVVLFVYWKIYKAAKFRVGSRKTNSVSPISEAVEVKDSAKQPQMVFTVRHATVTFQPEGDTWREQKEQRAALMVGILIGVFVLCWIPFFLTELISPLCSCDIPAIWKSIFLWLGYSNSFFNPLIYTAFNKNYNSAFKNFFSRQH

[3] = molecular target: Delta-type opioid receptor (Homo sapiens, UniProt P41143); assay: as §1, with “of OPRD1” for “of OPRM1”, “homodimerization. [Related pubchem assays (depositor defined):AID504326, AID504355, AID504692, AID504904, AID504905]” for “homodimerization.”; assay type: functional
Chain of Delta-type opioid receptor (P41143 whole entry): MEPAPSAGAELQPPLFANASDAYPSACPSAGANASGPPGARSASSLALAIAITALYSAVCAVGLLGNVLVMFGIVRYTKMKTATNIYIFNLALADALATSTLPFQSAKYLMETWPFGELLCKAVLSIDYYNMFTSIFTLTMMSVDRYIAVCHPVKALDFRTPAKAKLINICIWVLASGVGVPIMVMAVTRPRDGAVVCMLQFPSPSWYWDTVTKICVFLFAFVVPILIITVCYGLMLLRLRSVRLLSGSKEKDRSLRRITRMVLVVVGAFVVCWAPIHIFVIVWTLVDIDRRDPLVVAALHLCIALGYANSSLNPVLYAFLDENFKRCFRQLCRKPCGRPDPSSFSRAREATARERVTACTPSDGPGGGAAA

[4] = MIN6 cell viability loss – mouse insulinoma, cytotoxicity control, dose response (AID 2122); assay type: functional;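 also: confirmatory high-throughput counterscreen run to flag cytotoxic compounds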
[5] = decrease of insulin promoter-GFP reporter – imaging, high-content screening, mouse beta cells (AID 1628); assay type: functional; conditions: MIN6
[6] = loss of viability in HepG2 cells – cell-based, CellTiter-Glo, cherry-picked, cytotoxicity control for Shn3 inhibitor project, dose response (AID 624134); assay type: functional
[7] = reduction of Shn3 3'UTR-driven luciferase in osteoblasts – cell-based, Clone20 osteoblasts, firefly luciferase, cherry-picked, dose response (AID 624132); assay type: functional;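 also: firefly luciferase luminescence from reporter carrying the Shn3 3'UTR in osteoblasts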
[8] = non-specific 3'UTR reporter inhibition in Clone20-Shn3RL – cell-based, Renilla luciferase, cherry-picked, counter-screen for Shn3 inhibitor project, dose response (AID 624133); assay type: functional
[9] = molecular target: Protein Wnt-3a (Mus musculus, UniProt P27467); assay: antagonism of Wnt3a pathway luciferase reporter – Wnt-LIGHT cells, luminescence, selectivity assay for Gli-SUFU antagonist project, dose response (AID 651570); assay type: functional; conditions: read-out: IC50_Mean;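 also: Wnt-LIGHT reporter cells stimulated with conditioned medium from Wnt3a-producing cells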
Chain of Protein Wnt-3a (P27467 whole entry): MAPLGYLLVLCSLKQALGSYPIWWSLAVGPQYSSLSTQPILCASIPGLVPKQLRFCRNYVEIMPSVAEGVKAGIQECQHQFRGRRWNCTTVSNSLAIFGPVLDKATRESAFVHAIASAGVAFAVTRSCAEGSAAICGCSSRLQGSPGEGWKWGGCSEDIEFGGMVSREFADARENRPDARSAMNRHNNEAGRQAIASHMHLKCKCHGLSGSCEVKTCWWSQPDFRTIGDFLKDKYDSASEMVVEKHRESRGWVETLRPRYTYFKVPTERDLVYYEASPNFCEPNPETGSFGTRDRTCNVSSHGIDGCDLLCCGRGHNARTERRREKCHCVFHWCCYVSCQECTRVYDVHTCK

[10] = molecular target: T1, Tyrosine-protein phosphatase non-receptor type 7 (Homo sapiens, UniProt P35236); assay type: functional
T1 sequence (P35236 whole entry): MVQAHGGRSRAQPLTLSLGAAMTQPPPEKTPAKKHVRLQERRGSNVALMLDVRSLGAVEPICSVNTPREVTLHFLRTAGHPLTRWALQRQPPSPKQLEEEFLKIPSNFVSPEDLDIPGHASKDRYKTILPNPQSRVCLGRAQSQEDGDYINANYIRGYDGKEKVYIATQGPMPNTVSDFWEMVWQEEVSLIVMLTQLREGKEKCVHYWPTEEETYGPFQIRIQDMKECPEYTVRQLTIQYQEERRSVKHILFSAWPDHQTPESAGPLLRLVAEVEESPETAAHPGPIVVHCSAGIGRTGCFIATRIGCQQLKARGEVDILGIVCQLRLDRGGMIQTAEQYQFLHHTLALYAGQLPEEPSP

[11] = molecular target: T2, Tyrosine-protein phosphatase non-receptor type 22 (Homo sapiens, UniProt Q9Y2R2); assay type: functional
T2 sequence (Q9Y2R2 whole entry): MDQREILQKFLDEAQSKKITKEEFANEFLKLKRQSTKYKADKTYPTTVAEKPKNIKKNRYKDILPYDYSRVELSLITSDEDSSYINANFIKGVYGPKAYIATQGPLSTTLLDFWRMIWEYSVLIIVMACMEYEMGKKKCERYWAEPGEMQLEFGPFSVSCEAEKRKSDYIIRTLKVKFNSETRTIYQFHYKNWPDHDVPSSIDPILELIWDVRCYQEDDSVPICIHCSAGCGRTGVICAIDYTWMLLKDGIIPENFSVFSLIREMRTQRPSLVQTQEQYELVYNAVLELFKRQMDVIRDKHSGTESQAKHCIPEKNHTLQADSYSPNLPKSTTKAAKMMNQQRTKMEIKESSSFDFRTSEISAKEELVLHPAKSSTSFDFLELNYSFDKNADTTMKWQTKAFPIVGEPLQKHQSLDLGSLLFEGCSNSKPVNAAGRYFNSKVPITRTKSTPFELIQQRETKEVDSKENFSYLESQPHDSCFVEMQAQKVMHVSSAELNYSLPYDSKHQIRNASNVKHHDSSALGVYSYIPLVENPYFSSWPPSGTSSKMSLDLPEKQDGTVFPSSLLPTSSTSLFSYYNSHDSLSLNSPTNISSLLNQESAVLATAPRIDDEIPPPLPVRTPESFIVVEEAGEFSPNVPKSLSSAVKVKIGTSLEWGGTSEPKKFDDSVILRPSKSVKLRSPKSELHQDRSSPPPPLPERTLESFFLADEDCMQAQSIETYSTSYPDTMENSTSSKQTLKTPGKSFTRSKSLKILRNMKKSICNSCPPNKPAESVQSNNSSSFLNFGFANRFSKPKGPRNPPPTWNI

[12] = molecular target: T2, Tyrosine-protein phosphatase non-receptor type 22; assay type: functional; remark: listed apart in the source
[13] = molecular target: Cytochrome P450 2D6 (Homo sapiens, UniProt P10635);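 also: CYP2D6 member of a cytochrome P450 panel assay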
Chain of Cytochrome P450 2D6 (P10635 whole entry): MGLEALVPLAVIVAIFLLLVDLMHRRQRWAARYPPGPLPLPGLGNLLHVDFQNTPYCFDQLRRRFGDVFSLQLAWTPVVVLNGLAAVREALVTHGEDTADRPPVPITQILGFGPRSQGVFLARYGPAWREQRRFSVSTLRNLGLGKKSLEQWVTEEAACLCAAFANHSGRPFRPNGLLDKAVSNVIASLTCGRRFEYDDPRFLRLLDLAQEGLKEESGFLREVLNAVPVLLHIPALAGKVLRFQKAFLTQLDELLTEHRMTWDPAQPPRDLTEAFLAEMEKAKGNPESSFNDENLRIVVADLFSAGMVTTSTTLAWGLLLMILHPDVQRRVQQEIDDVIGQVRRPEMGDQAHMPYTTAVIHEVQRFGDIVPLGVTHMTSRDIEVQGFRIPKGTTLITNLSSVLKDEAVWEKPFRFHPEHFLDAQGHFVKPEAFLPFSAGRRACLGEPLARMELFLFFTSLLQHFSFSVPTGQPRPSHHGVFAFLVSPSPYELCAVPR

[14] = system: H4; assay: Luminescence Cell-Based Dose Response HTS to Identify Activators of 5'UTR Stem-Loop Driven Prion Protein mRNA Translation in H4 Neuroglioblastoma Cells. [Related pubchem assays: 1829 (Project Summary), 1814 (Primary HTS)]; assay type: functional; conditions: Homo sapiens
[15] = viability loss in HepG2 hepatoma cells – cell-based, ATP luminescence, cherry-pick, activator set 2, cytotoxicity control, dose response (AID 1053143); assay type: functional
[16] = Luminescence Cell-Based Dose Retest to Confirm Inhibitors of Cancer Stem Cells. [Related pubchem assays (depositor defined):AID2717, AID2721]; assay type: functional; conditions: Homo sapiens
[17] = viability loss of HMLE_sh_eGFP cells – cell-based, luminescence, counter-screen for HMLE_sh_ECad selective toxicity project, dose response (AID 463074); assay type: functional, Homo sapiens;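 also: HMLE human mammary epithelial cells expressing control shRNA against eGFP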
[18] = Luminescence Cell-Based Dose Response HTS to Identify Activators of Luciferase Translation or Activity in H4 […] Cells. [Related pubchem assays: 1829 (Project Summary), 1814 (Primary HTS)]; assay type: functional
[19] = molecular target: T3, Orexin/Hypocretin receptor type 1 (Homo sapiens, UniProt O43613); assay: (§2) Fluorescence-based cell-based high throughput dose response assay for antagonists of the orexin 1 receptor (OX1R; HCRTR1). [Related pubchem assays (depositor defined):AID434989, AID435008, AID463079, AID485270, AID492963, AID492964, AID492965, AID493232, AID504717, AID504718]; assay type: functional
T3 sequence (O43613 whole entry): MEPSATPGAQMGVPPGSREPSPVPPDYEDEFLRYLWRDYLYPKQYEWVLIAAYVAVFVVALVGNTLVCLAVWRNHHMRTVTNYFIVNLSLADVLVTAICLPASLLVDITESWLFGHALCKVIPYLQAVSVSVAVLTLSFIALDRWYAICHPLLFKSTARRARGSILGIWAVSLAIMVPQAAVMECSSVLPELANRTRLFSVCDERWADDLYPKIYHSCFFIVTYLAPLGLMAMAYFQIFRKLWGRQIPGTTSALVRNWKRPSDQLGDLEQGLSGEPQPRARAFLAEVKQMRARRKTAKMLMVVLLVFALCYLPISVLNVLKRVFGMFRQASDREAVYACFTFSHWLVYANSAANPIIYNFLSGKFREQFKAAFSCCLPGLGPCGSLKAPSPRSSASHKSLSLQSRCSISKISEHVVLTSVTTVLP

[20] = (§3) Counterscreen for antagonists of the orexin 1 receptor (OX1R; HCRTR1): Fluorescence-based cell-based high throughput dose response assay to identify antagonists of the parental CHO cell line. [Related pubchem assays (depositor defined):AID434989, AID435008, AID463079, AID485270, AID492963, AID492964, AID492965, AID493232, AID504699, AID504701]; assay type: functional
[21] = molecular target: T3, Orexin/Hypocretin receptor type 1; assay: as §2, with “Homogeneous Time Resolved Fluorescence (HTRF)-based” for “Fluorescence-based”; assay type: functional
[22] = system: CHO-K1; assay: as §3, with “Homogeneous time resolved fluorescence (HTRF)-based” for “Fluorescence-based”, “cell-based” for “cell-based high throughput”, “CHO-K1” for “CHO”; assay type: functional; conditions: Cricetulus griseus;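 also: potency for inhibition of ATP-stimulated IP1 production as antagonists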
[23] = molecular target: T4, Polyadenylate-binding protein 1 (Homo sapiens, UniProt P11940); assay: MLLE binding blockers, Cy5 peptide tracer – biochemical, fluorescence polarization, Cy5-PAM2 peptide, secondary, miRNA deadenylation inhibitor project, dose response (AID 602260); assay type: functional; conditions: read-out: IC50_Mean
T4 sequence (P11940 whole entry, the tested form may be a part): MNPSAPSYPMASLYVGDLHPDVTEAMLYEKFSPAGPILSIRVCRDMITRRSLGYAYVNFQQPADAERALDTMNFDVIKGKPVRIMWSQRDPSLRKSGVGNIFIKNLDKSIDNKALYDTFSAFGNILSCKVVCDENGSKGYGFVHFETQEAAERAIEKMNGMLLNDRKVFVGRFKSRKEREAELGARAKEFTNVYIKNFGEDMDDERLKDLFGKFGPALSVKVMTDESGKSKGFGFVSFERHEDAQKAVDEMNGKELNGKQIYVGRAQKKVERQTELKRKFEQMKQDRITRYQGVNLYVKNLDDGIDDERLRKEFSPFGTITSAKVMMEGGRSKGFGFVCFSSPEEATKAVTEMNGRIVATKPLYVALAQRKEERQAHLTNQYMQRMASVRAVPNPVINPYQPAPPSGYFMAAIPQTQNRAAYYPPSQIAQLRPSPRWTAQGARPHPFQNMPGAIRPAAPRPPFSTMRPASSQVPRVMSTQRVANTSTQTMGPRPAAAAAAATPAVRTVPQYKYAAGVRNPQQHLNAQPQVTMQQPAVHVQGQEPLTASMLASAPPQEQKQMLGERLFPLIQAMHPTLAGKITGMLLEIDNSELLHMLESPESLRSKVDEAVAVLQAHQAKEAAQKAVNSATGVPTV

[24] = molecular target: T4, Polyadenylate-binding protein 1; assay: MLLE domain peptide-binding blockers, IC50 – biochemical, fluorescence polarization, FITC-PAM2 peptide, dose response (AID 602259); assay type: functional; conditions: read-out: IC50_Mean
[25] = molecular target: T5, Alkaline phosphatase, tissue-nonspecific isozyme (Homo sapiens, UniProt P05186)
T5 sequence (P05186 whole entry): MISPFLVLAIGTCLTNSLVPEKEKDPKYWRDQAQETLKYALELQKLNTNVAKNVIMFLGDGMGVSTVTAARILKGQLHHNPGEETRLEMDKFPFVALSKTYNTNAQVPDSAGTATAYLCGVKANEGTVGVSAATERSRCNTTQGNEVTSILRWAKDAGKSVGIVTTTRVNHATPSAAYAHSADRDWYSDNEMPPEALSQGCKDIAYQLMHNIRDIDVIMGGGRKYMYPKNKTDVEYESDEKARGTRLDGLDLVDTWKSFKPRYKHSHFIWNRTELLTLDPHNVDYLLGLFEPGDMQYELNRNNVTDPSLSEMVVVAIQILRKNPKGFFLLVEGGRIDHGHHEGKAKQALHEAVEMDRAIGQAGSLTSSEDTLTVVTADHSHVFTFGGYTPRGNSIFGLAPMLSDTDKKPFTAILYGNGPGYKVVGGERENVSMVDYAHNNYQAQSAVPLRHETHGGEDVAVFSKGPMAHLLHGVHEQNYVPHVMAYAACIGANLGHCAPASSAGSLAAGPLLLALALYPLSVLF

[26] = molecular target: Cytochrome P450 2C9 (Homo sapiens, UniProt P11712)
Chain of Cytochrome P450 2C9 (P11712 whole entry): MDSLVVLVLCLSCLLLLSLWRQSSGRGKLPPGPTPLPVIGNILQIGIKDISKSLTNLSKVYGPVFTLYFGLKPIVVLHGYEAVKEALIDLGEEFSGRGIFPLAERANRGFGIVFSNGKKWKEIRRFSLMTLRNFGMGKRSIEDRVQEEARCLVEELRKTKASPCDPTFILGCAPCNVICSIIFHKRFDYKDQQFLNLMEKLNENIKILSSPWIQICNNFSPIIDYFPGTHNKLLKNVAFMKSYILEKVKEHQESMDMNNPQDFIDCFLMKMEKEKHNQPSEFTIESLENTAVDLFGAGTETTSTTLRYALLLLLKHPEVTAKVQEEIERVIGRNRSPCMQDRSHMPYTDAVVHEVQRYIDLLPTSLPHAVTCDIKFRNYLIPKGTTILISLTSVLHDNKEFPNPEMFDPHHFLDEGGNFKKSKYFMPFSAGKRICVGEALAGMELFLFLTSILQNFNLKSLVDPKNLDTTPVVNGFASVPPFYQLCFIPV

[27] = molecular target: Coagulation factor XII (Homo sapiens, UniProt P00748); assay type: functional;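 also: activated factor XIIa alpha cleaving a fluorogenic AMC peptide substrate; inhibitor potency from loss of enzyme activity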
Chain of Coagulation factor XII (P00748 20-372 limits assumed): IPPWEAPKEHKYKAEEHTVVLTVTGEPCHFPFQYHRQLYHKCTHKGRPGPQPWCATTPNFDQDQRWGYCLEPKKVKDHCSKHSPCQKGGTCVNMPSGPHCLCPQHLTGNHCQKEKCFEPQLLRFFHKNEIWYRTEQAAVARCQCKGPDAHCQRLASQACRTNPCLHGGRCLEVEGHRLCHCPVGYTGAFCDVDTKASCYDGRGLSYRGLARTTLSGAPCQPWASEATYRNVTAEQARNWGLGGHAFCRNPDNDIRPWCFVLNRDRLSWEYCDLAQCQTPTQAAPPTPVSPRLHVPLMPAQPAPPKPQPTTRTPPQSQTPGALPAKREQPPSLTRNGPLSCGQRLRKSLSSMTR
Chain of Coagulation factor XII (P00748 373-615 limits assumed): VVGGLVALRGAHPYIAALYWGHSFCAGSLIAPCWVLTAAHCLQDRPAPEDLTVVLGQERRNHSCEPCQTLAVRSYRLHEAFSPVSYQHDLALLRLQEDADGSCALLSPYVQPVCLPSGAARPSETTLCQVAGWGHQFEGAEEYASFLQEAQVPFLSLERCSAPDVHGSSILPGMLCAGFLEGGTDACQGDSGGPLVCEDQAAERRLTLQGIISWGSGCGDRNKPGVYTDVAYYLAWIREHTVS

[28] = cells; assay type: functional, cell-based
[29] = molecular target: FAD-linked sulfhydryl oxidase ALR (Homo sapiens, UniProt P55789); assay: ALR-catalysed DTT oxidation blockers – biochemical, H2O2 detection, luminescence, cherry-pick, dose response (AID 493248)
Chain of FAD-linked sulfhydryl oxidase ALR (P55789 whole entry): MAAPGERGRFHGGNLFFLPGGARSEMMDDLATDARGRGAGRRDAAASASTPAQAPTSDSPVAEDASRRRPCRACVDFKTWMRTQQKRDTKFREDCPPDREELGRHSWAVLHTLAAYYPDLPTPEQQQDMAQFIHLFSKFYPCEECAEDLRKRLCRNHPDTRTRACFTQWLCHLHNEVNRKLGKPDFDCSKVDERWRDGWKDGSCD

[30] = molecular target: Cytochrome P450 2C19 (Homo sapiens, UniProt P33261); assay: Cytochrome panel assay with activity outcomes. Panel member name: p450-cyp2c19 Compounds with AC50 equal or less than 10 uM are considered active; assay type: functional; conditions: read-out: AC50
Chain of Cytochrome P450 2C19 (P33261 whole entry): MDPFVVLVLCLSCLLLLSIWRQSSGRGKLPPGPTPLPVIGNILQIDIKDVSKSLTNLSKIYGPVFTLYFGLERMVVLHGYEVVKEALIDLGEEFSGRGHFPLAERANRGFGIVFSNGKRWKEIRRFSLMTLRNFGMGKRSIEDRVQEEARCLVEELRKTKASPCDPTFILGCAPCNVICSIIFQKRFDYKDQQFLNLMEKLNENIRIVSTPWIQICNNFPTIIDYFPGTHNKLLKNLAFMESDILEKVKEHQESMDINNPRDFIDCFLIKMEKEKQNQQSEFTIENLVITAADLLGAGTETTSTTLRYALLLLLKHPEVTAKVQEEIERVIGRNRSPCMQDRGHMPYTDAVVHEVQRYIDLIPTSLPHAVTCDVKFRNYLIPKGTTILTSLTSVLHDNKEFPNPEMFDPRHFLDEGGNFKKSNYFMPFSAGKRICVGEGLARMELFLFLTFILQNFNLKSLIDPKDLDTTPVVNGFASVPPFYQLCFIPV

[31] = cells; assay type: functional, cell-based; remark: listed apart in the source

## O=C(NCCc1ccc(Cl)cc1)C1CCC(CNc2nc(=S)[nH]c3ccccc23)CC1 (centres undefined)
[1]
  EC50: > 92.5 µM (inactive)
[2]
  EC50: > 92.5 µM (inactive)
[3]
  EC50: > 92.5 µM (inactive)

## CCc1c(C)nc2ncnn2c1N1CCN(S(=O)(=O)c2ccc(OC)cc2)CC1
[4]
  IC50: 0.936 µM (active)
[5]
  IC50: 1.35 µM (active)
[6]
  AC50: 5.28 µM (active)
[7]
  AC50: 1.16 µM (active)
[8]
  AC50: 3.52 µM (active)
[9]
  IC50: 5.74 µM (active)

## CCOC(=O)CC1(NC(=O)c2cc(COc3cncc(Cl)c3)on2)CCCCC1
[10]
  IC50: > 79.4 µM (inactive)
[11]
  IC50: > 79.4 µM (inactive)
[12]
  IC50: > 79.4 µM (inactive)

## Cc1ccsc1/C=C1/SC(=O)N(CC(=O)N2CCOCC2)C1=O
[13]
  AC50: inconclusive

## Cc1oc(=O)c(NC(=O)c2cccc(Cl)c2)cc1C(=O)c1ccccc1
[14]
  EC50: 90.8 µM (active)
[15]
  AC50: 26 µM (active)
[16]
  AC50: 16.4 µM (active)
[17]
  AC50: 21.7 µM (active)
[18]
  EC50: 6.62 µM (active)

## C[C@@H]1CN([C@@H](C)CO)C(=O)c2cccc(NC(=O)Nc3ccc(F)cc3)c2O[C@@H]1CN(C)Cc1ccc(Oc2ccccc2)cc1
[19]
  IC50: 11.2 µM (inactive)
[20]
  IC50: 23.7 µM (inactive)
[21]
  IC50: > 66.2 µM (inactive)
[22]
  IC50: > 66.2 µM (inactive)

## COCCNC(=S)N/N=C(\C)c1ccccc1O
[4]
  IC50: 1.01 µM (active)
[5]
  IC50: 2.44 µM (active)
[23]
  IC50: > 66 µM (inactive)
[24]
  IC50: > 66 µM (inactive)
[25]
  EC50: 70.7 µM (not active)

## Cc1ccc(/C=N\Nc2nc3cc(Cl)ccc3[nH]2)o1
[26]
  AC50: 7.08 µM (inconclusive)
[27]
  IC50: > 50 µM (inactive)
[28]
  EC50: 27.6 µM (active)
[29]
  AC50: 0.289 µM (active)
[30]
  AC50: 28.2 µM (inconclusive)
[31]
  EC50: > 350 µM (not active)

## C[N+]1(CCC(=O)c2ccco2)C[C@H]2CC[C@H](CC2)C1 (some centres undefined)
[13]
  AC50: inconclusive
